Target: T1, active p38 alpha enzyme (Upstate Biotechnology) (Homo sapiens, UniProt Q16539)
T1 construct: purchased Upstate Biotechnology
Experiment: p38α biochemical assay (ATP turnover, luminescent detection, Cambrex PKlight)
Settings: p38α biochemical assay, Table 1 Biological Activity
Procedure: The p38α biochemical assay employed is based on measurement of total ATP turnover following enzyme incubation with substrate in the presence of ATP with the use of a luminescent detection reagent (Cambrex PKlight). The assays were performed in 1536-well white opaque plates.
The final volume was 7.5005 μL as prepared prepared from the addition of 5 ul of kinase reaction (p38 alpah+MapkapK2+ATP) with 0.0005 μL compound dissolved in DMSO, and 2.5 ul of the detection reagent. Assay buffer contains the following reagents to give final concentration in the assay: 200 mM Tris, 100 mM MgCl2, 1.5 mM EGTA, 4 mM CaCl2, 20 mM MOPS, 1 mM EDTA, 1% glycerol, 0.1% B-Mecaptoethanol, and 1 mg/ml BSA. Test compounds are pinned using proprietary pintool technology (Kalypsys, Inc) and delivered as […] amounts into the 5 ul mixture of active p38 alpha enzyme (Upstate Biotechnology) and MapkapK2 (Upstate Biotechnology) whole protein as a substrate for phosphorylation in the presence of 1.4 uM final concentration ATP. Reactions are incubated at 30C for 2 hours and detection reagent is added in 2.5 ul/well amounts. Assay is read using a Perkin Elmer Viewlux.

T1 sequence (Q16539 whole entry): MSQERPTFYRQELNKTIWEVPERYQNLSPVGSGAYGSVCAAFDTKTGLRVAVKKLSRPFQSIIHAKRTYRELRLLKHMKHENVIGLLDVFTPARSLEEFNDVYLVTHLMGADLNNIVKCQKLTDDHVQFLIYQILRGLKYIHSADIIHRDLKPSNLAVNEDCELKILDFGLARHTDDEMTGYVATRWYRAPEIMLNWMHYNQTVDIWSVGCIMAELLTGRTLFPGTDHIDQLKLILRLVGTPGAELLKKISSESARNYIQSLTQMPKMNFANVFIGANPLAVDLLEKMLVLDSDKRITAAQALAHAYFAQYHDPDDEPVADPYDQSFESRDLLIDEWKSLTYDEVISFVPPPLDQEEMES

Molecule	IC50 [µM]
CNC(=O)n1ccc(-c2c(-c3ccc(Cl)cc3)noc2C)n1 [Example 3, 3-|3-(4-Chloro-phenyl)-5-methyl-isoxazol-4-yl|-pyrazole-1-carboxylic acid methylamide]	> 1
Cc1onc(-c2ccc(Cl)cc2)c1-c1ccn(C(=O)NC2CC2)n1 [Example 7, 3-|3-(4-Chloro-phenyl)-5-methyl-isoxazol-4-yl|-pyrazole-1-carboxylic acid cyclopropylamide]	> 1
Cc1onc(-c2ccc(Cl)cc2)c1-c1ccn(C(=O)NC2Cc3ccccc3C2)n1 [Example 10, 3-|3-(4-Chloro-phenyl)-5-methyl-isoxazol-4-yl|-pyrazole-1-carboxylic acid indan-2-ylamide]	> 1
Cc1onc(-c2ccc(Cl)cc2)c1-c1ccn(C(=O)NCc2ccco2)n1 [Example 11, 3-|3-(4-Chloro-phenyl)-5-methyl-isoxazol-4-yl|-pyrazole-1-carboxylic acid (furan-2-ylmethyl)-amide]	> 1
Cc1onc(-c2ccc(Cl)cc2)c1-c1ccn(C(=O)NCC2CCCO2)n1 (stereo not drawn) [Example 12, 3-|3-(4-Chloro-phenyl)-5-methyl-isoxazol-4-yl|-pyrazole-1-carboxylic acid (tetrahydro-furan-2-ylmethyl)-amide]	> 1
Cc1onc(-c2ccc(Cl)cc2)c1-c1ccn(C(=O)N(C)C(C)C)n1 [Example 13, 3-|3-(4-Chloro-phenyl)-5-methyl-isoxazol-4-yl|-pyrazole-1-carboxylic acid isopropyl-methyl-amide]	> 1
Cc1onc(-c2ccc(Cl)cc2)c1-c1ccn(C(=O)NC(CO)CO)n1 [Example 14, 3-|3-(4-Chloro-phenyl)-5-methyl-isoxazol-4-yl|-pyrazole-1-carboxylic acid (2-hydroxy-1-hydroxymethyl-ethyl)-amide]	> 1
Cc1onc(-c2cccc(C(F)(F)F)c2)c1-c1ccn(C(=O)NC(C)C)n1 [Example 19, 3-|5-Methyl-3-(3-trifluoromethyl-phenyl)-isoxazol-4-yl|-pyrazole-1-carboxylic acid isopropylamide]	> 1
Cc1onc(-c2ccc(Cl)cc2)c1-c1ccn(C(=O)CC(C)C)n1 [Example 20, 1-{3-|3-(4-Chloro-phenyl)-5-methyl-isoxazol-4-yl|-pyrazol-1-yl}-3-methyl-butan-1-one]	> 1
Cc1cc(Cl)ccc1-c1noc(C)c1-c1ccn(C(=O)NC(C)C)n1 [Example 24, 3-|3-(4-Chloro-2-methyl-phenyl)-5-methyl-isoxazol-4-yl|-pyrazole-1-carboxylic acid isopropylamide]	> 1
CC(C)NC(=O)c1csc(-c2c(-c3ccc(F)cc3)noc2CN2CCCCC2)n1 [Example 30, 2-|3-(4-Fluoro-phenyl)-5-piperidin-1-ylmethyl-isoxazol-4-yl|-thiazole-4-carboxylic acid isopropylamide]	> 1
CCOC(=O)N1CCC(NCc2onc(-c3ccc(F)cc3)c2-c2nc(C(=O)NC(C)C)cs2)CC1 [Example 31]	> 1
CC(C)NC(=O)c1csc(-c2c(-c3ccc(F)cc3)noc2CNCCO)n1 [Example 32, 2-{3-(4-Fluoro-phenyl)-5-|(2-hydroxy-ethylamino)-methyl|-isoxazol-4-yl}-thiazole-4-carboxylic acid isopropylamide]	> 1
COCCNCc1onc(-c2ccc(F)cc2)c1-c1nc(C(=O)NC(C)C)cs1 [Example 33, 2-{3-(4-Fluoro-phenyl)-5-|(2-methoxy-ethylamino)-methyl|-isoxazol-4-yl}-thiazole-4-carboxylic acid isopropylamide]	> 1
Cc1onc(-c2ccc(F)cc2)c1-c1csc(C(=O)NC(C)C)n1 [Example 34]	≤ 1
CC(C)NC(=O)c1csc(-c2c(-c3ccc(F)cc3)noc2C2CCN(C(=O)CO)CC2)n1 [Example 36, 2-{3-(4-Fluoro-phenyl)-5-|1-(2-hydroxy-acetyl)-piperidin-4-yl|-isoxazol-4-yl}-thiazole-4-carboxylic acid isopropylamide]	≤ 1
CC(C)NC(=O)c1coc(-c2c(-c3ccc(F)cc3)noc2C2CCNCC2)n1 [Example 37, 2-|3-(4-Fluoro-phenyl)-5-piperidin-4-yl-isoxazol-4-yl|-oxazole-4-carboxylic acid isopropylamide]	≤ 1
Cc1nc(-c2ccc(F)cc2)c(-c2nc(C(N)=O)cs2)o1 [Example 39, 2-|4-(4-Fluoro-phenyl)-2-methyl-oxazol-5-yl|-thiazole-4-carboxylic acid amide]	> 1
CC(C)NC(=O)c1csc(-c2oc(CN(C)C)nc2-c2ccc(F)cc2)n1 [Example 42, 2-|2-Dimethylaminomethyl-4-(4-fluoro-phenyl)-oxazol-5-yl|-thiazole-4-carboxylic acid isopropylamide]	≤ 1

The next lines start with the values.

IC50 [µM]	Molecule
≤ 1	Cc1onc(-c2ccc(Cl)cc2)c1-c1ccn(C(=O)NC(C)C)n1 [Example 2, 3-|3-(4-Chloro-phenyl)-5-methyl-isoxazol-4-yl|-pyrazole-1-carboxylic acid isopropylamide]
≤ 1	CCC(C)NC(=O)n1ccc(-c2c(-c3ccc(Cl)cc3)noc2C)n1 (stereo not drawn) [Example 4, 3-|3-(4-Chloro-phenyl)-5-methyl-isoxazol-4-yl|-pyrazole-1-carboxylic acid sec-butylamide]
≤ 1	Cc1onc(-c2ccc(Cl)cc2)c1-c1ccn(C(=O)NCCO)n1 [Example 5, 3-|3-(4-Chloro-phenyl)-5-methyl-isoxazol-4-yl|-pyrazole-1-carboxylic acid (2-hydroxy-ethyl)-amide]
≤ 1	Cc1onc(-c2ccc(Cl)cc2)c1-c1ccn(C(=O)NC(C)CO)n1 (stereo not drawn) [Example 6, 3-|3-(4-Chloro-phenyl)-5-methyl-isoxazol-4-yl|-pyrazole-1-carboxylic acid (2-hydroxy-1-methyl-ethyl)-amide]
≤ 1	Cc1onc(-c2ccc(Cl)cc2)c1-c1ccn(C(=O)NC2CCCCC2)n1 [Example 8, 3-|3-(4-Chloro-phenyl)-5-methyl-isoxazol-4-yl|-pyrazole-1-carboxylic acid cyclohexylamide]
≤ 1	Cc1onc(-c2ccc(Cl)cc2)c1-c1ccn(C(=O)NC2CCCC2)n1 [Example 9, 3-|3-(4-Chloro-phenyl)-5-methyl-isoxazol-4-yl|-pyrazole-1-carboxylic acid cyclopentylamide]
≤ 1	Cc1onc(-c2ccc(Cl)cc2)c1-c1ccn(C(=O)NCC(C)C)n1 [Example 15, 3-|3-(4-Chloro-phenyl)-5-methyl-isoxazol-4-yl|-pyrazole-1-carboxylic acid isobutyl-amide]
≤ 1	Cc1onc(-c2ccc(Cl)cc2)c1-c1cc(C)n(C(=O)NC(C)C)n1 [Example 16, 3-|3-(4-Chloro-phenyl)-5-methyl-isoxazol-4-yl|-5-methyl-pyrazole-1-carboxylic acid isopropylamide]
≤ 1	Cc1onc(-c2ccc(F)cc2Cl)c1-c1ccn(C(=O)NC(C)C)n1 [Example 21, 3-|3-(2-Chloro-4-fluoro-phenyl)-5-methyl-isoxazol-4-yl|-pyrazole-1-carboxylic acid isopropylamide]
≤ 1	COCc1onc(-c2ccc(Cl)cc2)c1-c1ccn(C(=O)NC(C)C)n1 [Example 22, 3-|3-(4-Chloro-phenyl)-5-methoxymethyl-isoxazol-4-yl|-pyrazole-1-carboxylic acid isopropylamide]
≤ 1	Cc1onc(-c2ccc(F)c(Cl)c2)c1-c1ccn(C(=O)NC(C)C)n1 [Example 23, 3-|3-(3-Chloro-4-fluoro-phenyl)-5-methyl-isoxazol-4-yl|-pyrazole-1-carboxylic acid isopropylamide]
≤ 1	CC(C)NC(=O)n1ccc(-c2c(-c3ccc(F)cc3)noc2CN(C)C)n1 [Example 25, 3-|5-Dimethylaminomethyl-3-(4-fluoro-phenyl)-isoxazol-4-yl|-pyrazole-1-carboxylic acid isopropylamide]
≤ 1	CC(C)NC(=O)c1csc(-c2c(-c3ccc(F)cc3)noc2CN2CCNCC2)n1 [Example 28, 2-|3-(4-Fluoro-phenyl)-5-piperazin-1-ylmethyl-isoxazol-4-yl|-thiazole-4-carboxylic acid isopropylamide]
≤ 1	CC(C)NC(=O)c1csc(-c2c(-c3ccc(F)cc3)noc2CN(C)C)n1 [Example 29, 2-|5-Dimethylaminomethyl-3-(4-fluoro-phenyl)-isoxazol-4-yl|-thiazole-4-carboxylic acid isopropylamide]

Same assay, conditions: p38α kinase; Table 1 Biological Activity

IC50 [µM]	Molecule
> 1	2-|4-(4-Fluoro-phenyl)-5-oxo-2,5-dihydro-isoxazol-3-yl|-thiazole-4-carboxylic acid isopropyl amide [Example 2181]
> 1	COCCOCn1nc(-c2ccc(F)cc2)c(-c2nc(C=NOC)cs2)c1C (single isomer, unassigned) [Example 2186, 2-|3-(4-Fluoro-phenyl)-1-(2-methoxy-ethoxymethyl)-5-methyl-1H-pyrazol-4-yl|-thiazole-4-carbaldehyde O-methyl-oxime]
> 1	COCCOCn1nc(-c2ccc(F)cc2)c(-c2nc(C=NOC)cs2)c1C (single isomer, unassigned) [Example 2187, 2-|3-(4-Fluoro-phenyl)-1-(2-methoxy-ethoxymethyl)-5-methyl-1H-pyrazol-4-yl|-thiazole-4-carbaldehyde O-methyl-oxime]

Source: patent publication US20060252807A1, “Novel ortho-terphenyl inhibitors of p38 kinase and methods of treating inflammatory disorders” (Kalypsys, Inc., priority 2005, published 2006)
